# Source: PMC4823997 (Journal of medicinal chemistry, 2015)
# Read-outs that look alike come from different tables or passages of the source.
# Tests used:
# HIV-1 IIIB = experiment: Luciferase activity assay of HIV-1 infectivity in TZM-bl cells; type: cell-based; conditions: read-out: Anti-HIV EC50
# CEM cells = experiment: Cytotoxicity assay; type: cell-based, human; conditions: for CC50: read-out: Cytotoxicity CC50 CEM, CEM cells, 72 h
# TZM-bl cells = experiment: Cytotoxicity assay; type: cell-based; conditions: for CC50: read-out: Cytotoxicity CC50 TZM-bl, TZM-bl cells, 72 h
# hCXCR4 = hCXCR4 (Homo sapiens, UniProt P61073); experiment: Radioligand [125I]SDF-1α binding to hCXCR4-transfected HEK293 membrane; conditions: for fold increase in CXCR4 binding affinity compared to compound 4: relative to compound 4; for fold decrease in CXCR4 binding affinity compared to compound 18: relative to compound 18; for fold decrease in CXCR4 binding compared to compound 25: relative to compound 25
# Sequence of hCXCR4 (P61073 whole entry): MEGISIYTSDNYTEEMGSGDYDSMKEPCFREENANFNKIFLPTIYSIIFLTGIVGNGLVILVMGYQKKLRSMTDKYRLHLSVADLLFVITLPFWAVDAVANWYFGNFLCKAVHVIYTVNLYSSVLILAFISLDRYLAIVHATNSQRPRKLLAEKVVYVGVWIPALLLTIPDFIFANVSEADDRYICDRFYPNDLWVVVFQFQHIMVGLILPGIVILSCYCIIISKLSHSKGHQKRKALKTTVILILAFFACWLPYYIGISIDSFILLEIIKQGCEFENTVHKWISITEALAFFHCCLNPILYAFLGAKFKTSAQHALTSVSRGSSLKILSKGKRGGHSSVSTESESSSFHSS
# Cytotoxicity assay [1] = type: cell-based, human; conditions: human, CEM cells (T-lymphoblast leukemia)
# Cytotoxicity assay [2] = type: cell-based; conditions: human, TZM-bl cells
# [3] = TZM-bl cells, HIV-1 IIIB, M.O.I. 1
SMILES,CC50 at 72 h (Cytotoxicity assay [1]) [µM],selectivity ratio at 72 h (Cytotoxicity assay [1]),CC50 at 72 h (Cytotoxicity assay [2]) [µM],selectivity ratio at 72 h (Cytotoxicity assay [2]),also measured
"COc1ccc2c(NC3CCNCC3)nc(NCc3ccc(CNCCCN4CCCCC4)cc3)nc2c1 [Compound 16, 7-Methoxy-N^4-piperidin-4-yl-N^2-{4-[(3-piperidin-1-yl-propy-lamino)-methyl]-benzyl}-quinazoline-2,4-diamine]",,,,,EC50 (HIV-1 IIIB; [3]): 0.027 ± 0.0042 µM; Selective Index CC50/EC50 CEM (CEM cells): 511; CC50 (CEM cells): 13.8 ± 1.9 µM; Selective Index CC50/EC50 TZM-bl (TZM-bl cells): 1193; CC50 (TZM-bl cells): 32.2 ± 0.2 µM
"COc1ccc2c(NC3CCNCC3)nc(NCc3ccc(CNCCCNC4CCCCC4)cc3)nc2c1 [Compound 10, N^2-{4-[(3-Cyclohexylamino-propylamino)-methyl]-benzyl}-7-methoxy-N^4-piperidin-4-yl-quinazoline-2,4-diamine]",1.6 ± 0.6,186,10.8 ± 3.3,1260,fold increase in CXCR4 binding affinity compared to compound 4 (hCXCR4): 4−5 fold
"COc1cc2nc(NCc3ccc(CNCCCNC4CCCCCC4)cc3)nc(NC3CCNCC3)c2cc1OC [Compound 14, N^2-{4-[(3-Cycloheptylamino-propylamino)-methyl]-benzyl}-6,7-methoxy-N^4-piperidin-4-yl-quinazoline-2,4-diamine]",,,,,EC50 (HIV-1 IIIB; [3]): 0.0484 ± 0.0034 µM; Selective Index CC50/EC50 CEM (CEM cells): 376; CC50 (CEM cells): 18.2 ± 4.5 µM; Selective Index CC50/EC50 TZM-bl (TZM-bl cells): 399; CC50 (TZM-bl cells): 19.3 ± 0.88 µM
"CN1CCN(c2nc(NCc3ccc(CNCCCNC4CCCCC4)cc3)c3ncn(C)c3n2)CC1 [Compound 20, N-Cyclohexyl-N′-(4-{[9-methyl-2-(4-methyl-piperazin-1-yl)-9H-purin-6-ylamino]-methyl}-benzyl)-propane-1,3-diamine]",13.8 ± 1.8,2120,11.2 ± 2.1,1720,fold decrease in CXCR4 binding affinity compared to compound 18 (hCXCR4): 4−5 fold
"c1nc2c(NCc3ccc(CNCCCNC4CCCCC4)cc3)nc(N3CCC(C4CCNCC4)CC3)nc2[nH]1 [Compound 21, N-{4-[(2-[4,4′]Bipiperidinyl-1-yl-9H-purin-6-ylamino)-methyl]-benzyl}-N′-cyclohexyl-propane-1,3-diamine]",> 50,> 593,> 50,> 593,fold decrease in CXCR4 binding affinity compared to compound 18 (hCXCR4): 2−3 fold
"c1nc2c(NCc3ccc(CNCCCNC4CCCCC4)cc3)nc(N3CCNCC3)nc2[nH]1 [Compound 18, N-Cyclohexyl-N′-{4-[(2-piperazin-1-yl-9H-purin-6-ylamino)-methyl]-benzyl}-propane-1,3-diamine]",> 50,> 25000,> 50,> 25000,
"c1cc(CN2CCCNCCNCCCNCC2)ccc1CN1CCCNCCNCCCNCC1 [AMD3100, reference compound]",,,,,"EC50 (HIV-1 IIIB; Human immunodeficiency virus 1, IIIB, TZM-bl): 0.0666 ± 0.0231 µM"
"COc1cc2nc(NCc3ccc(CNCCCNC4CCCCC4)cc3)nc(NC3CCNCC3)c2cc1OC [Compound 11, N^2-{4-[(3-Cyclohexylamino-propylamino)-methyl]-benzyl}-6,7-dimethoxy-N^4-piperidin-4-yl-quinazoline-2,4-diamine]",17.5 ± 2.4,806,23.1 ± 7,1060,
"Cn1cnc2c(NCc3ccc(CNCCCNC4CCCCC4)cc3)nc(N3CCNCC3)nc21 [Compound 19, N-Cyclohexyl-N′-{4-[(9-methyl-2-piperazin-1-yl-9H-purin-6-ylamino)-methyl]-benzyl}-propane-1,3-diamine]",20.2 ± 1.5,5940,18.6 ± 2,5470,fold decrease in CXCR4 binding affinity compared to compound 18 (hCXCR4): 4−5 fold
"COc1cc2nc(NCc3ccc(CNCCCN4CCCCC4)cc3)nc(NC3CCNCC3)c2cc1OC [Compound 17, 6,7-Dimethoxy-N^4-piperidin-4-yl-N^2-{4-[(3-piperidin-1-yl-propylamino)-methyl]-benzyl}-quinazoline-2,4-diamine]",17.6 ± 3,672,28.1 ± 1.5,1070,
"c1nc2c(NCCc3ccc(CNCCCNC4CCCCC4)cc3)nc(N3CCNCC3)nc2[nH]1 [Compound 23, N-Cyclohexyl-N′-{4-[2-(2-piperazin-1-yl-9H-purin-6-ylami-no)-ethyl]-benzyl}-propane-1,3-diamine]",,,,,fold decrease in CXCR4 binding affinity compared to compound 18 (hCXCR4): around 2 fold; EC50 (HIV-1 IIIB; [3]): 0.0031 ± 0.0007 µM; Selective Index CC50/EC50 CEM (CEM cells): 15065; CC50 (CEM cells): 46.7 ± 3.2 µM; Selective Index CC50/EC50 TZM-bl (TZM-bl cells): >16129; CC50 (TZM-bl cells): > 50 µM
"COc1ccc2nc(NCc3ccc(CNCCCN4CCCCC4)cc3)nc(NC3CCNCC3)c2c1 [Compound 15, 6-Methoxy-N^4-piperidin-4-yl-N^2-{4-[(3-piperidin-1-yl-propy-lamino)-methyl]-benzyl}-quinazoline-2,4-diamine]",,,,,EC50 (HIV-1 IIIB; [3]): 0.0939 ± 0.0147 µM; Selective Index CC50/EC50 CEM (CEM cells): 196; CC50 (CEM cells): 18.4 ± 5.5 µM; Selective Index CC50/EC50 TZM-bl (TZM-bl cells): 261; CC50 (TZM-bl cells): 24.5 ± 2.5 µM
"CC1(C)CN2C(CSC(=NC3CCCCC3)NC3CCCCC3)=CSC2=N1 [IT1t, reference compound]",,,,,EC50 (HIV-1 IIIB; [3]): > 0.07 µM
"COc1ccc2nc(NCc3ccc(CNCCCNC4CCCCC4)cc3)nc(NC3CCNCC3)c2c1 [Compound 9, N^2-{4-[(3-Cyclohexylamino-propylamino)-methyl]-benzyl}-6-methoxy-N^4-piperidin-4-yl-quinazoline-2,4-diamine]",8 ± 1.7,169,8.4 ± 1,177,fold increase in CXCR4 binding affinity compared to compound 4 (hCXCR4): 4−5 fold
"c1cc(CNCCCNC2CCCCC2)nc(CNc2nc(N3CCNCC3)nc3[nH]cnc23)c1 [Compound 26, N-Cyclohexyl-N′-{6-[(2-piperazin-1-yl-9H-purin-6-ylamino)-methyl]-pyridin-2-ylmethyl}-propane-1,3-diamine]",> 50,> 20000,> 50,> 20000,fold decrease in CXCR4 binding compared to compound 25 (hCXCR4): 4−10 fold
"COc1ccc2nc(NCc3ccc(CNCCCNC4CCCCCC4)cc3)nc(NC3CCNCC3)c2c1 [Compound 12, N^2-{4-[(3-Cycloheptylamino-propylamino)-methyl]-benzyl}-6-methoxy-N^4-piperidin-4-yl-quinazoline-2,4-diamine]",6.5 ± 1.1,153,21.7 ± 7,509,fold increase in CXCR4 binding affinity compared to compound 4 (hCXCR4): 4−5 fold
"COc1ccc2c(NC3CCNCC3)nc(NCc3ccc(CNCCCNC4CCCCCC4)cc3)nc2c1 [Compound 13, N^2-{4-[(3-Cycloheptylamino-propylamino)-methyl]-benzyl}-7-methoxy-N^4-piperidin-4-yl-quinazoline-2,4-diamine]",6.1 ± 1.1,134,10.8 ± 0.8,238,fold increase in CXCR4 binding affinity compared to compound 4 (hCXCR4): 4−5 fold
"c1nc2c(NCc3cncc(CNCCCNC4CCCCC4)c3)nc(N3CCNCC3)nc2[nH]1 [Compound 27, N-Cyclohexyl-N′-{5-[(2-piperazin-1-yl-9H-purin-6-ylamino)-methyl]-pyridin-3-ylmethyl}-propane-1,3-diamine]",> 50,> 8770,> 50,> 8770,fold decrease in CXCR4 binding compared to compound 25 (hCXCR4): 4−10 fold
"c1nc2c(NCc3ccc(CNCCCNC4CCCCC4)cn3)nc(N3CCNCC3)nc2[nH]1 [Compound 22, N-Cyclohexyl-N′-{6-[(2-piperazin-1-yl-9H-purin-6-ylamino)-methyl]-pyridin-3-ylmethyl}-propane-1,3-diamine]",> 50,> 11900,> 50,> 11900,fold decrease in CXCR4 binding affinity compared to compound 18 (hCXCR4): 2 fold
